Reference: patent EP4678644A1, “SUBSTITUTED DIHYDROTHIENOPYRIMIDINE COMPOUND, PREPARATION METHOD THEREFOR, AND USE THEREOF” (Shanghai Yidi Biotechnology Co., Ltd., priority 2023, dated 2024)

Legend:
PDE4D2 = PDE4D2 (Homo sapiens, UniProt Q08499); assay: PDE4D2 enzyme experiment (AMP-glo, cAMP substrate); type: biochemical; conditions: read-out: PDE4D2 IC50 Binding
From the text: Inhibition rate % ^= (1 - (RLUpositive control - RLUcompound)/(RLUpositive control - RLUnegative control)) * 100.

PDE4B2 [1] = target: T1, PDE4B2 (Homo sapiens, UniProt Q07343); assay: PDE4B2 enzyme experiment (AMP-glo, cAMP substrate); type: biochemical; conditions: for inhibition at 0.01 µM: read-out: PDE4B2 Enzyme Inhibition% @10 nM; for inhibition at 0.1 µM: read-out: PDE4B2 Enzyme Inhibition% @100 nM
T1 construct: expressed in transfected cells; host or cells: Flp-In-293 (Flpin-293-PDE4B2 [sic])
T1 sequence (Q07343 1-564 isoform Q07343-2): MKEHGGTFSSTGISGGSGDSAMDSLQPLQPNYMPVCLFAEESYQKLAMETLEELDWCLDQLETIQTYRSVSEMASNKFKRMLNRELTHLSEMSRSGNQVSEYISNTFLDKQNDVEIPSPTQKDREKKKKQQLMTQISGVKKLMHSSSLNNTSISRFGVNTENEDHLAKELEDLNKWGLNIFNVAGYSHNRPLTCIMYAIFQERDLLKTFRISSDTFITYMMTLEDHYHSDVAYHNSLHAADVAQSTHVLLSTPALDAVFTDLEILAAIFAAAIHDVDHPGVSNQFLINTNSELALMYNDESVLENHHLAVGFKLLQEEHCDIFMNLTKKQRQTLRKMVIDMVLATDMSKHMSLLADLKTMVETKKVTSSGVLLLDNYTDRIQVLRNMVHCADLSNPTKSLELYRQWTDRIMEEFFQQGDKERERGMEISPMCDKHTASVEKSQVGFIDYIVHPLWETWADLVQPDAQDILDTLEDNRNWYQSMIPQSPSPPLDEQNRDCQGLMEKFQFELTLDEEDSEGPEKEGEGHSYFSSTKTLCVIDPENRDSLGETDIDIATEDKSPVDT
Protocol: All compounds were dissolved in DMSO into 10 mM or 20 mM stock solutions. The compound to be tested was diluted with DMSO in a 3-fold gradient. 20 nL/well of the compound or a DMSO control was transferred to a 384-well plate by using Echo 550 instrument. The plate was sealed with a membrane and centrifuged for 1 minute. A 2x enzyme solution was prepared with an assay buffer, and 2 uL/well of the 2x enzyme solution was added, followed by equilibration at room temperature for 10 minutes. A 2x Cyclic-3',5'-AMP substrate solution was prepared with an assay buffer, and 2 uL/well of the 2x substrate solution was added, followed by incubation at room temperature for 60 minutes. 4 uL of AMP-glo reagent was added, followed by incubation at room temperature for 60 minutes. 8 ul of an AMP detection solution was added, followed by incubation at room temperature for 60 minutes. An RLU value was read on Envision 2105 plate reader. The RLU value represents the concentration of the product AMP. Inhibition rate % ^= (1 - (RLUpositive control - RLUcompound)/(RLUpositive control - RLUnegative control)) * 100. The IC50 value was then caulculated by Graphpad 8.0 software using Y = Bottom + (Top - Bottom)/(1 + 10^((LogIC50 - X) * HillSlope)).

PDE4B2 [2] = target: T1, PDE4B2; assay: PDE4B2 cell experiment (cAMP, Eu-cAMP tracer / Ulight-anti-cAMP); type: cell-based; conditions: Flpin-293-PDE4B2 cells; for inhibition at 0.01 µM / Cell Inhibition% @10 nM: 10 nM; for inhibition at 0.1 µM / Cell Inhibition% @100 nM: 100 nM; for inhibition at 0.001 µM / Cell Inhibition% @1 nM: 1 nM
Protocol: All compounds were dissolved in DMSO into 10 mM or 20 mM stock solutions. The compound to be tested was diluted with DMSO with a 3-fold gradient. […] 40 nL/well of the compound or a DMSO control was transferred to a 384-well plate by using Echo 550 instrument. […] The plate was incubated at 37°C for 30 minutes. Eu-cAMP tracer and Ulight-anti-cAMP were frozen and thawed and diluted in a lysis buffer. 10 of µl Eu-cAMP tracer was added to an experimental well, and 10 µl of Ulight-anti-cAMP was added to the experimental well. The reaction plate was centrifuged at 200 g at room temperature for 30 s and then left to stand at 25°C for 1 h, and data was then collected by Envision. Inhibition % = 100 - (Signal compound - SignalAve positive control)/(SignalAve negative control - SignalAve positive control) × 100. Graphpad 8.0 software was then used to obtain an IC50 value by calculation using Y = Bottom + (Top - Bottom)/(1 + 10^((LogIC50 - X) * HillSlope)).

Chain of PDE4D2 (Q08499 303-809 limits assumed): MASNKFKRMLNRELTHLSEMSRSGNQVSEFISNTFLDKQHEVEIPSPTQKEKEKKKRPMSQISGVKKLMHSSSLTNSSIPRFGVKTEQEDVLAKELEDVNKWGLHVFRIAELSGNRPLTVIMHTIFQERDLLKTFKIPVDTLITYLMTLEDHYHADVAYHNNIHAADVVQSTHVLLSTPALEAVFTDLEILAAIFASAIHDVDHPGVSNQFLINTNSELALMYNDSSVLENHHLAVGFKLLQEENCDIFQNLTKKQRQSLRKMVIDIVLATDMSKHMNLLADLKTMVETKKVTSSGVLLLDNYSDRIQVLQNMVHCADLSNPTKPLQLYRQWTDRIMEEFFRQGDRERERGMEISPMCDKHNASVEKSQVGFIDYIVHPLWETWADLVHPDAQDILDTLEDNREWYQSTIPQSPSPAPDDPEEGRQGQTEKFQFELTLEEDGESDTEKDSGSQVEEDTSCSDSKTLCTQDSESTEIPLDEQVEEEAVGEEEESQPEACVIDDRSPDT

[O-][S@+]1CCc2nc(N3CCc4c(nn5cc(Cl)cnc45)C3)nc(NC3(CO)CCC3)c21 [Compound 1, (R)-2-(3-chloro-9,10-dihydropyrido[3',4':3,4]pyrazolo[1,5-a]pyrimidin-8(7H)-yl)-4-((1-(hydroxymethyl)cyclobutyl)amino)-6,7-dihydrothieno[3,2-d]pyrimidine 5-oxide]
IC50 (PDE4D2): 7.72 nM

[O-][S@+]1CCc2nc(N3CCc4c(nn5cc(Cl)ccc45)C3)nc(NC3(CO)CCC3)c21 [Compound 9, (R)-2-(7-Chloro-3,4-dihydropyrazolo[1,5-a:3,4-c']dipyridin-2(1H)-yl)-4-((1-(hydroxymethyl)cyclobutyl)amino)-6,7-dihydrothieno[3,2-d]pyrimidine 5-oxide]
IC50 (PDE4D2): 0.224 nM

[O-][S@+]1CCc2nc(N3CCc4cc(Cl)ccc4C3)nc(NC3(CO)CCC3)c21 [Compound 18, (R)-2-(6-chloro-3,4-dihydroisoquinolin-2(1H)-yl)-4-((1-(hydroxymethyl)cyclobutyl)amino)-6,7-dihydrothieno[3,2-d]pyrimidine 5-oxide]
IC50 (PDE4D2): 3.21 nM

[O-][S@+]1CCc2nc(N3CCc4cc5c(cc4C3)OC(F)(F)O5)nc(NC3(CO)CCC3)c21 [Compound 48, (R)-2-(2,2-difluoro-7,8-dihydro-[1,3]dioxolo[4,5-g]isoquinolin-6(5H)-yl)-4-((1-(hydroxymethyl)cyclobutyl)amino)-6,7-dihydrothieno[3,2-d]pyrimidine 5-oxide]
inhibition at 0.01 µM (PDE4B2 [1]): 87%
inhibition at 0.1 µM (PDE4B2 [1]): 101%
inhibition at 0.01 µM (PDE4B2 [2]): 25.7%
inhibition at 0.1 µM (PDE4B2 [2]): 76.2%

[O-][S@+]1CCc2nc(N3CCc4cc5ncoc5cc4C3)nc(NC3(CO)CCC3)c21 [Compound 49, (R)-2-(7,8-dihydrooxazolo[4,5-g]isoquinolin-6(5H)-yl)-4-((1-(hydroxymethyl)cyclobutyl)amino)-6,7-dihydrothieno[3,2-d]pyrimidine 5-oxide]
IC50 (PDE4D2): 4.81 nM

COc1cc2c(cc1[N+](=O)[O-])CCN(c1nc3c(c(NC4(CO)CCC4)n1)[S@+]([O-])CC3)C2 [Compound 50, (R)-4-((1-(hydroxymethyl)cyclobutyl)amino)-2-(7-methoxy-6-nitro-3,4-dihydroisoquinolin-2(1H)-yl)-6,7-dihydrothieno[3,2-d]pyrimidine 5-oxide]
IC50 (PDE4D2): 0.695 nM

[O-][S@+]1CCc2nc(N3CCc4cc(Br)sc4C3)nc(NC3(CO)CCC3)c21 [Compound 53, (R)-2-(2-bromo-4,7-dihydrothieno[2,3-c]pyridin-6(5H)-yl)-4-((1-(hydroxymethyl)cyclobutyl)amino)-6,7-dihydrothieno[3,2-d]pyrimidine 5-oxide]
IC50 (PDE4D2): 1.22 nM

[O-][S+]1CCc2nc(N3CCc4sc(Br)cc4C3)nc(NC3(CO)CCC3)c21 (centres unmarked) [Compound 55]
PDE4B2 Enzyme Inhibition% @10 nM (PDE4B2 [1]): 93.26%
PDE4B2 Enzyme Inhibition% @100 nM (PDE4B2 [1]): 99.90%
Cell Inhibition% @10 nM (PDE4B2 [2]): 52.78%
Cell Inhibition% @100 nM (PDE4B2 [2]): 93.43%

[O-][S@+]1CCc2nc(N3CCc4scc(Br)c4C3)nc(NC3(CO)CCC3)c21 [Compound 57, (R)-2-(3-bromo-6,7-dihydrothieno[3,2-c]pyridin-5(4H)-yl)-4-((1-(hydroxymethyl)cyclobutyl)amino)-6,7-dihydrothieno[2,2-d]pyrimidine 5-oxide]
inhibition at 0.001 µM (PDE4B2 [1]; read-out: PDE4B2 Enzyme Inhibition% @1 nM): 38.9%
inhibition at 0.01 µM (PDE4B2 [1]): 90.5%
inhibition at 0.1 µM (PDE4B2 [1]): 100%
inhibition at 0.001 µM (PDE4B2 [2]): 11.8%
inhibition at 0.01 µM (PDE4B2 [2]): 14.9%
inhibition at 0.1 µM (PDE4B2 [2]): 71.6%

Cn1nc2c(c1Cl)CN(c1nc3c(c(NC4(CO)CCC4)n1)[S+]([O-])CC3)CC2 (centres unmarked) [Compound 58]
PDE4B2 Enzyme Inhibition% @10 nM (PDE4B2 [1]): 68.74%
PDE4B2 Enzyme Inhibition% @100 nM (PDE4B2 [1]): 97.48%
Cell Inhibition% @10 nM (PDE4B2 [2]): 15.88%
Cell Inhibition% @100 nM (PDE4B2 [2]): 57.11%

N#Cc1ccc2c(c1)CN(c1nc3c(c(NC4(CO)CCC4)n1)[S@+]([O-])CC3)C2 [Compound 60, (R)-2-(4-((1-(hydroxymethyl)cyclobutyl)amino)-5-oxido-6,7-dihydrothieno[3,2-d]pyrimidin-2-yl)isoindoline-5-carbonitrile]
inhibition at 0.01 µM (PDE4B2 [1]): 65.8%
inhibition at 0.1 µM (PDE4B2 [1]): 99.3%
inhibition at 0.01 µM (PDE4B2 [2]): 21.2%
inhibition at 0.1 µM (PDE4B2 [2]): 65.9%

O=[N+]([O-])c1ccc2c(c1)CN(c1nc3c(c(NC4(CO)CCC4)n1)[S+]([O-])CC3)C2 (centres unmarked) [Compound 61]
PDE4B2 Enzyme Inhibition% @10 nM (PDE4B2 [1]): 70.90%
PDE4B2 Enzyme Inhibition% @100 nM (PDE4B2 [1]): 98.20%
Cell Inhibition% @10 nM (PDE4B2 [2]): 17.7%
Cell Inhibition% @100 nM (PDE4B2 [2]): 55.2%

[O-][S+]1CCc2nc(N3Cc4ccc(C(F)(F)F)cc4C3)nc(NC3(CO)CCC3)c21 (centres unmarked) [Compound 62]
PDE4B2 Enzyme Inhibition% @10 nM (PDE4B2 [1]): 83.85%
PDE4B2 Enzyme Inhibition% @100 nM (PDE4B2 [1]): 100.57%
Cell Inhibition% @10 nM (PDE4B2 [2]): 29.5%
Cell Inhibition% @100 nM (PDE4B2 [2]): 69.1%

[O-][S+]1CCc2nc(N3CCc4nc(Br)sc4C3)nc(NC3(CO)CCC3)c21 (centres unmarked) [Compound 63]
IC50 (PDE4B2 [1]): 4.21 nM
Cell Inhibition% @10 nM (PDE4B2 [2]): 31.1%
Cell Inhibition% @100 nM (PDE4B2 [2]): 76.6%

[O-][S@+]1CCc2nc(N3CCc4nc(N5CCC5)sc4C3)nc(NC3(CO)CCC3)c21 [Compound 64, (R)-2-(2-(azetidin-1-yl)-6,7-dihydrothiazolo[5,4-c]pyridin-5(4H)-yl)-4-((1-(hydroxymethyl)cyclobutyl)amino)-6,7dihydrothieno[3,2-d]pyrimidine 5-oxide]
IC50 (PDE4D2): 3.46 nM

[O-][S@+]1CCc2nc(N3CCc4cc(-c5nccs5)ccc4C3)nc(NC3(CO)CCC3)c21 [Compound 65, (R)-4-((1-(hydroxymethyl)cyclobutyl)amino)-2-(6-(thiazol-2-yl)-3,4-dihydroisoquinolin-2(1H)-yl)-6,7-dihydrothieno[3,2-d]pyrimidine 5-oxide]
IC50 (PDE4D2): 0.0931 nM

[O-][S@+]1CCc2nc(N3CCc4cc(C5CC5)ccc4C3)nc(NC3(CO)CCC3)c21 [Compound 66, (R)-2-(6-cyclopropyl-3,4-dihydroisoquinolin-2(1H)-yl)-4-((1-(hydroxymethyl)cyclobutyl)amino)-6,7-dihydrothieno[3,2-d]pyrimidine 5-oxide]
IC50 (PDE4D2): 1.13 nM

[O-][S@+]1CCc2nc(N3CCc4c(sc5ccc(F)cc45)C3)nc(NC3(CO)CCC3)c21 [Compound 69, (R)-2-(6-fluoro-3,4-dihydrobenzo[4,5]thieno[2,3-c]pyridin-2(1H)-yl)-4-((1-(hydroxymethyl)cyclobutyl)amino)-6,7-dihydrothieno[3,2-d]pyrimidine 5-oxide]
IC50 (PDE4D2): 0.276 nM

[O-][S@+]1CCc2nc(N3CCc4c(cnc5cc(Cl)ccc45)C3)nc(NC3(CO)CCC3)c21 [Compound 72, (R)-2-(8-chloro-1,4-dihydrobenzo[c][2,7]naphthyridin-3(2H)-yl)-4-((1-(hydroxymethyl)cyclobutyl)amino)-6,7-dihydrothieno[3,2-d]pyrimidine 5-oxide]
IC50 (PDE4D2): 0.587 nM

[O-][S@+]1CCc2nc(N3CCc4c(c(Cl)nc5cc(Cl)ccc45)C3)nc(NC3(CO)CCC3)c21 [Compound 73, (R)-2-(5,8-dichloro-1,4-dihydrobenzo[c][2,7]naphthyridin-3(2H)-yl)-4-((1-(hydroxymethyl)cyclobutyl)amino)-6,7-dihydrothieno[3,2-d]pyrimidine 5-oxide]
IC50 (PDE4D2): 0.958 nM

CNc1nc2cc(Cl)ccc2c2c1CN(c1nc3c(c(NC4(CO)CCC4)n1)[S@+]([O-])CC3)CC2 [Compound 74, (R)-2-(8-chloro-5-(methylamino)-1,4-dihydrobenzo[c][2,7]naphthyridin-3(2H)-yl)-4-((1-(hydroxymethyl)cyclobutyl)amino)-6,7-dihydrothieno[3,2-d]pyrimidine 5-oxide]
IC50 (PDE4D2): 1.09 nM

NC(=O)c1ccc2c(c1)CCN(c1nc3c(c(NC4(CO)CCC4)n1)[S+]([O-])CC3)C2 (centres unmarked) [Compound 75]
IC50 (PDE4B2 [1]): 0.81 nM
Cell Inhibition% @1 nM (PDE4B2 [2]): 4.93%
Cell Inhibition% @10 nM (PDE4B2 [2]): 24.88%
Cell Inhibition% @100 nM (PDE4B2 [2]): 51.36%

Cn1nccc1-c1ccc2c(c1)CCN(c1nc3c(c(NC4(CO)CCC4)n1)[S@+]([O-])CC3)C2 [Compound 76, (R)-4-((1-(hydroxymethyl)cyclobutyl)amino)-2-(6-(1-methyl-1H-pyrazol-5-yl)-3,4-dihydroisoquinolin-2(1H)-yl)-6,7-dihydrothieno[3,2-d]pyrimidine 5-oxide]
IC50 (PDE4D2): 0.089 nM

[O-][S+]1CCc2nc(N3CCc4cnc(Cl)cc4C3)nc(NC3(CO)CCC3)c21 (centres unmarked) [Compound 79]
IC50 (PDE4B2 [1]): 9.19 nM
Cell Inhibition% @1 nM (PDE4B2 [2]): 1.99%
Cell Inhibition% @10 nM (PDE4B2 [2]): 11.19%
Cell Inhibition% @100 nM (PDE4B2 [2]): 59.37%

O=C1OCCN1c1ccc2c(c1)CCN(c1nc3c(c(NC4(CO)CCC4)n1)[S@+]([O-])CC3)C2 [Compound 80, (R)-3-(2-(4-((1-(hydroxymethyl)cyclobutyl)amino)-5-oxido-6,7-dihydrothieno[3,2-d]pyrimidin-2-yl)-1,2,3,4-tetrahydroisoquinolin-6-yl)oxazolidin-2-one]
IC50 (PDE4D2): 0.56 nM

Cn1ncc2c3c(cnc21)CN(c1nc2c(c(NC4(CO)CCC4)n1)[S@+]([O-])CC2)CC3 [Compound 104, (R)-4-((1-(hydroxymethyl)cyclobutyl)amino)-2-(3-methyl-3,6,8,9-tetrahydro-7H-pyrazolo[3,4-c][2,7]naphthyridin-7-yl)-6,7-dihydrothieno[3,2-d]pyrimidine 5-oxide]
IC50 (PDE4D2): 2.94 nM

CN1CC=C(c2ccc3c(c2)CCN(c2nc4c(c(NC5(CO)CCC5)n2)[S@+]([O-])CC4)C3)C1 [Compound 169, (R)-4-((1-(hydroxymethyl)cyclobutyl)amino)-2-(6-(1-methyl-2,5-dihydro-1H-pyrrol-3-yl)-3,4-dihydroisoquinolin-2(1H)-yl)-6,7-dihydrothieno[3,2-d]pyrimidine 5-oxide]
inhibition at 0.01 µM (PDE4B2 [1]): 20.4%
inhibition at 0.1 µM (PDE4B2 [1]): 78.8%
inhibition at 0.001 µM (PDE4B2 [2]): 4.67%
inhibition at 0.01 µM (PDE4B2 [2]): 48.6%
inhibition at 0.1 µM (PDE4B2 [2]): 96.7%
